According to patent publication US9028845B2, “Chimeric immunomodulatory compounds and methods of using the same-IV” (Dynavax Technologies Corporation, priority 2001, dated 2015):

Tests used:
[1] = system: human PBMCs; assay: Human PBMC cytokine response assay (IFN-γ and IFN-α in cell-free medium by ELISA), with or without cPLGA; type: cell-based
[2] = system: mouse lung; assay: Induction of immune-associated genes in the mouse lung after intranasal treatment (quantitative PCR); type: in vivo, BALB/c mice; details: 20 ug intranasal, 6 hrs; vs P-7 treated mice
Procedure: The genes evaluated included genes encoding cytokines, chemokines, cell surface molecules, transcription factors, metalloproteases, and other molecules. The study was performed at Northview Pacific Laboratories (Hercules, Calif.) with 6-8 week old female BALB/c mice from Jackson Labs (Bar Harbor, Me.). […] Therefore, at 6 hrs the lungs were harvested and snap-frozen in liquid nitrogen and stored at −80° C. for later use. Total RNA was isolated using RNeasy mini kits (Qiagen Inc., Valencia, Calif.). The RNA samples were DNAse-treated (Roche Diagnostics, Mannheim, Germany) and converted into cDNA using Superscript II Rnase H-Reverse Transcriptase (Invitrogen, Rockville Md.) as described in Scheerens et al., 2001, Eur. J. of Immunology 31:1465-74. The cDNA samples were pooled per group and in each pooled sample the expression of mRNA of 75 genes was measured using real-time quantitative PCR (ABI Prism 5700, Perkin Elmer Applied Biosystems) and syber green (Qiagen Inc.). In addition to the genes of interest, in each sample the mRNA expression of a housekeeping gene was measured (HPRT or ubiquitin). In order to correct for the amount of RNA in each sample, all data were calculated relative to the expression of the housekeeping gene.

[3] = system: mice; assay: Serum cytokines (IL-12 p40, IL-6, TNF-α) after subcutaneous injection in mice; type: in vivo; details: 20 ug subcutaneous
Procedure: Blood was collected 2 hours later. For the LPS positive control group, mice were injected intraperitoneally with a 200 ul volume, and blood was collected 1.5 hours later (i.e., at the peak of LPS induced TNF-α activity). The blood was clotted and the serum was prepared and stored at −80° C. until assayed. Serum cytokines were assayed using Biosource cytoscreen kits for TNF-α and Pharmingen antibody pairs for mIL-6 and mIL-12. All samples were assayed in duplicate.

[4] = system: CD19+ B cells; assay: Human B cell proliferation assay (3H-thymidine incorporation); details: B cells, 2 μg/ml, Experiment B
[5] = donor 28066, 20 ug/ml, 24 h, + PLGA = premixed with 100 μg/ml cPLGA
[6] = donor 28067, 20 ug/ml, 24 h, + PLGA = premixed with 100 μg/ml cPLGA
[7] = donor 28068, 20 ug/ml, 24 h, + PLGA = premixed with 100 μg/ml cPLGA
[8] = mean of donors 28065-28068, 20 ug/ml, 24 h, + PLGA = premixed with 100 μg/ml cPLGA
[9] = mean of donors 28185-28188, Table 15

5′-TCGTCG-3′-HEG-5′-AACGTT-3′-HEG-5′-AGATGAT-3′ [Compound C-23]
IFN-α ([1]; Table 13, donor 28156): 26 pg/mL | IFN-γ ([1]; Table 13, donor 28156): 733 pg/mL | IFN-α ([1]; Table 13, donor 28157): 235 pg/mL | IFN-γ ([1]; Table 13, donor 28157): 576 pg/mL | IFN-α ([1]; Table 13, donor 28158): 59 pg/mL | IFN-γ ([1]; Table 13, donor 28158): 202 pg/mL | IFN-α ([1]; Table 13, donor 28159): 169 pg/mL | IFN-γ ([1]; Table 13, donor 28159): 295 pg/mL | IFN-α mean ([1]; Table 13, mean of donors): 122 pg/mL | IFN-γ mean ([1]; Table 13, mean of donors): 452 pg/mL | IFN-γ (pg/ml) 28065 ([1]; donor 28065 (high background), 20 ug/ml, 24 h, + PLGA = premixed with 100 μg/ml cPLGA, 1000 = outside assay limits): 438 pg/mL | IFN-α (pg/ml) 28065 ([1]; donor 28065, 20 ug/ml, 24 h, + PLGA = premixed with 100 μg/ml cPLGA): 52 pg/mL | IFN-α (pg/ml) 28066 [1, 5]: 3 pg/mL | IFN-γ (pg/ml) 28066 [1, 5]: 5 pg/mL | IFN-α (pg/ml) 28067 [1, 6]: 19 pg/mL | IFN-γ (pg/ml) 28067 [1, 6]: 6 pg/mL | IFN-α (pg/ml) 28068 [1, 7]: 137 pg/mL | IFN-γ (pg/ml) 28068 [1, 7]: 238 pg/mL | IFN-a ([1]; donor 28185, Table 15): 83 pg/mL | IFN-g ([1]; donor 28185, Table 15): 42 pg/mL | IFN-a ([1]; donor 28186, Table 15): 27 pg/mL | IFN-g ([1]; donor 28186, Table 15): 14 pg/mL | IFN-a ([1]; donor 28187, Table 15): 59 pg/mL | IFN-g ([1]; donor 28187, Table 15): 29 pg/mL | IFN-a ([1]; donor 28188, Table 15): 55 pg/mL | IFN-g ([1]; donor 28188, Table 15): 3 pg/mL | IFN-α (pg/ml) mean [1, 8]: 53 pg/mL | IFN-γ (pg/ml) mean [1, 8]: 172 pg/mL | IFN-a (pg/ml) mean [1, 9]: 56 pg/mL | IFN-g (pg/ml) mean [1, 9]: 22 pg/mL | IFN-a (pg/ml) ×2 ([1]; mean ×2, Table 15): 112 pg/mL | IFN-g (pg/ml) ×4 ([1]; mean ×4, Table 15): 88 pg/mL | mRNA expression of immune-associated genes in the lung, in words [2]: potently induce the expression of a variety of genes | potency in serum cytokine induction compared with other compounds, in words [3]: more potent than C-9 and P-6 | induction of serum IL-12 p40, IL-6 and TNF-α, in words ([3]; blood 2 hours later): induced IL-12 p40, IL-6, and TNF-α | cpm1 ([4]; donor 121): 10628 cpm | cpm2 ([4]; donor 121): 16221 cpm | cpm3 ([4]; donor 121): 20087 cpm | mean cpm ([4]; donor 121 mean): 15645 cpm | cpm1 ([4]; donor 194): 8730 cpm | cpm2 ([4]; donor 194): 6532 cpm | cpm3 ([4]; donor 194): 9596 cpm | mean cpm ([4]; donor 194 mean): 8286 cpm | mean of both ([4]; mean of donors 121 and 194): 11966 cpm
